According to patent publication US10343992B2, “1-cyano-pyrrolidine compounds as USP30 inhibitors” (MISSION THERAPEUTICS LIMITED, priority 2015, dated 2019):

Each molecule was assayed against USP30 (Homo sapiens (Human), UniProt Q70CQ3) (assay: USP30 biochemical FP or FI IC50 assay). Conditions: read-out: IC50 range.
Outline: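 Human USP30 preincubated 30 min at room temperature with compound (8-point series, 100 µM top final) in Tris pH 7.5, Tween 20, BSA, 5 mM β-mercaptoethanol, in duplicate. FP format: 50 nM TAMRA-peptide–isopeptide-ubiquitin substrate, ex 540/em 590. FI format: 100 nM ubiquitin-rhodamine 110, ex 487/em 535. Both read at 0 and after 2 h at room temperature.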

Chain of USP30 (Q70CQ3 57-517): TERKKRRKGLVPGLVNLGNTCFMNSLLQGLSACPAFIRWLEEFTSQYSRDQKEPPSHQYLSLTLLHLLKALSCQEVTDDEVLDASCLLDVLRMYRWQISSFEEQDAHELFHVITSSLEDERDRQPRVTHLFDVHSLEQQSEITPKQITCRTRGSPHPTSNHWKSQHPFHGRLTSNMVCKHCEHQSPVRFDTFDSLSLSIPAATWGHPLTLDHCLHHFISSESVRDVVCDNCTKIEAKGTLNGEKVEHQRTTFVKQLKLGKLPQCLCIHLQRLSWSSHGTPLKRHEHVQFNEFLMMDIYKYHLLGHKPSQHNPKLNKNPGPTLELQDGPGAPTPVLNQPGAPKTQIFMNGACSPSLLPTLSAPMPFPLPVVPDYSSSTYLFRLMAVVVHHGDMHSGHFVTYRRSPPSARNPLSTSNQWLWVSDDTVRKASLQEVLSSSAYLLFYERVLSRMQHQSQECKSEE

SMILES	IC50
N#CN1CC[C@@H](NC(=O)N2CCN(c3ccccc3)CC2)C1 [Example 135, (R)-N-(1-cyanopyrrolidin-3-yl)-4-phenylpiperazine-1-carboxamide]	100 to 1000 nM
N#CN1CC[C@@H](NC(=O)N2CCOC(c3ccccc3)C2)C1 (stereo partly drawn) [Example 136, N-((R)-1-cyanopyrrolidin-3-yl)-2-phenylmorpholine-4-carboxamide]	100 to 1000 nM
N#CN1CC[C@@H](NC(=O)N2CCCN(Cc3c(F)cccc3Cl)CC2)C1 [Example 137, (R)-4-(2-chloro-6-fluorobenzyl)-N-(1-cyanopyrrolidin-3-yl)-1,4-diazepane-1-carboxamide]	100 to 1000 nM
N#CN1CC[C@@H](NC(=O)N2CCCN(Cc3ccccc3)CC2)C1 [Example 138, (R)-4-benzyl-N-(1-cyanopyrrolidin-3-yl)-1,4-diazepane-1-carboxamide]	100 to 1000 nM
N#CN1CC[C@@H](NC(=O)N2CCc3c([nH]c4ccccc34)C2)C1 [Example 139, (R)-N-(1-cyanopyrrolidin-3-yl)-1,3,4,9-tetrahydro-2H-pyrido[3,4-b]indole-2-carboxamide]	100 to 1000 nM
C[C@@H]1CN(c2cc(C(=O)N[C@@H]3CCN(C#N)C3)c(F)cn2)C[C@H](C)O1 [Example 140, N-((R)-1-cyanopyrrolidin-3-yl)-2-((2S,6R)-2,6-dimethylmorpholino)-5-fluoroisonicotinamide]	100 to 1000 nM
N#CN1CC[C@@H](NC(=O)c2cc(N3Cc4ccccc4C3)ncc2F)C1 [Example 141, (R)-N-(1-cyanopyrrolidin-3-yl)-5-fluoro-2-(isoindolin-2-yl)isonicotinamide]	100 to 1000 nM
N#CN1CC[C@@H](NC(=O)c2ccc(Nc3ncccn3)c(F)c2)C1 [Example 142, (R)-N-(1-cyanopyrrolidin-3-yl)-3-fluoro-4-(pyrimidin-2-ylamino)benzamide]	< 100 nM
N#CN1CC[C@@H](NC(=O)c2ccc(N3CCCC3)cc2F)C1 [Example 143, (R)-N-(1-cyanopyrrolidin-3-yl)-2-fluoro-4-(pyrrolidin-1-yl)benzamide]	< 100 nM
N#CN1CC[C@@H](NC(=O)c2cc(F)c(N3CCCC3)cc2F)C1 [Example 145, (R)-N-(1-cyanopyrrolidin-3-yl)-2,5-difluoro-4-(pyrrolidin-1-yl)benzamide]	< 100 nM
CO[C@@H]1CCN(c2ccc(C(=O)N[C@@H]3CCN(C#N)C3)c(F)c2)C1 [Example 146, N-((R)-1-cyanopyrrolidin-3-yl)-2-fluoro-4-((R)-3-methoxypyrrolidin-1-yl)benzamide]	100 to 1000 nM
COc1cc(C(=O)N[C@@H]2CCN(C#N)C2)ccc1Nc1ncccn1 [Example 147, (R)-N-(1-cyanopyrrolidin-3-yl)-3-methoxy-4-(pyrimidin-2-ylamino)benzamide]	100 to 1000 nM
COc1cc(C(=O)N[C@@H]2CCN(C#N)C2)ccc1Nc1nccc(C)n1 [Example 148, (R)-N-(1-cyanopyrrolidin-3-yl)-3-methoxy-4-((4-methylpyrimidin-2-yl)amino)benzamide]	100 to 1000 nM
COc1ccnc(Nc2ccc(C(=O)N[C@@H]3CCN(C#N)C3)c(F)c2)n1 [Example 149, (R)-N-(1-cyanopyrrolidin-3-yl)-2-fluoro-4-((4-methoxypyrimidin-2-yl)amino)benzamide]	< 100 nM
Cc1cc(C(=O)N[C@@H]2CCN(C#N)C2)nn1C(C)c1ccccc1 (stereo partly drawn) [Example 150, N-((R)-1-cyanopyrrolidin-3-yl)-5-methyl-1-(1-phenylethyl)-1H-pyrazole-3-carboxamide]	100 to 1000 nM
Cc1cc(C(=O)N[C@@H]2CCN(C#N)C2)nn1Cc1ccccn1 [Example 151, (R)-N-(1-cyanopyrrolidin-3-yl)-5-methyl-1-(pyridin-2-ylmethyl)-1H-pyrazole-3-carboxamide]	100 to 1000 nM
CC(C)Cn1nc(C(=O)N[C@@H]2CCN(C#N)C2)c2ccc(-c3cnn(C)c3)cc21 [Example 153, (R)-N-(1-cyanopyrrolidin-3-yl)-1-isobutyl-6-(1-methyl-1H-pyrazol-4-yl)-1H-indazole-3-carboxamide]	100 to 1000 nM
Cc1noc(C)c1-c1ccc2c(C(=O)N[C@@H]3CCN(C#N)C3)nn(CC(C)C)c2c1 [Example 154, (R)-N-(1-cyanopyrrolidin-3-yl)-6-(3,5-dimethylisoxazol-4-yl)-1-isobutyl-1H-indazole-3-carboxamide]	< 100 nM
Cc1noc(C)c1-c1ccc2c(C(=O)N[C@@H]3CCN(C#N)C3)nn(CC3CC3)c2c1 [Example 155, (R)-N-(1-cyanopyrrolidin-3-yl)-1-(cyclopropylmethyl)-6-(3,5-dimethylisoxazol-4-yl)-1H-indazole-3-carboxamide]	< 100 nM
Cc1cc(-c2ccn3c(C(=O)N(C)[C@@H]4CCN(C#N)C4)cnc3c2)ccn1 [Example 161, (R)-N-(1-cyanopyrrolidin-3-yl)-N-methyl-7-(2-methylpyridin-4-yl)imidazo[1,2-a]pyridine-3-carboxamide]	100 to 1000 nM

Second part, the molecule after the results:

IC50	SMILES
100 to 1000 nM	N#CN1CC[C@@H](NC(=O)c2ccc(-c3ccnnc3)cc2F)C1 [Example 152, (R)-N-(1-cyanopyrrolidin-3-yl)-2-fluoro-4-(pyridazin-4-yl)benzamide]
100 to 1000 nM	CN(C(=O)c1cn2cc(-c3cnn(C)c3)ccc2n1)[C@@H]1CCN(C#N)C1 [Example 156, (R)-N-(1-cyanopyrrolidin-3-yl)-N-methyl-6-(1-methyl-1H-pyrazol-4-yl)imidazo[, 2-a]pyridine-2-carboxamide]
< 100 nM	CN(C(=O)c1cc2cc(-c3cnn(C)c3)ccc2[nH]1)[C@@H]1CCN(C#N)C1 [Example 157, (R)-N-(1-cyanopyrrolidin-3-yl)-N-methyl-5-(1-methyl-1H-pyrazol-4-yl)-1H-indole-2-carboxamide]
100 to 1000 nM	Cc1noc(C)c1-c1ccc2[nH]c(C(=O)N(C)[C@@H]3CCN(C#N)C3)nc2c1 [Example 158, (R)-N-(1-cyanopyrrolidin-3-yl)-6-(3,5-dimethylisoxazol-4-yl)-N-methyl-1H-benzo[d]imidazole-2-carboxamide]
100 to 1000 nM	Cn1cc(-c2ccn3c(C(=O)N[C@@H]4CCN(C#N)C4)cnc3c2)cn1 [Example 159, (R)-N-(1-cyanopyrrolidin-3-yl)-7-(1-methyl-1H-pyrazol-4-yl)imidazo[1,2-a]pyridine-3-carboxamide]
< 100 nM	N#Cc1cccc(-c2ccn3c(C(=O)N[C@@H]4CCN(C#N)C4)cnc3c2)c1 [Example 160, (R)-7-(3-cyanophenyl)-N-(1-cyanopyrrolidin-3-yl)imidazo[1,2-a]pyridine-3-carboxamide]
100 to 1000 nM	Cc1ccc(-c2ccn3c(C(=O)N(C)[C@@H]4CCN(C#N)C4)cnc3c2)cn1 [Example 162, (R)-N-(1-cyanopyrrolidin-3-yl)-N-methyl-7-(6-methylpyridin-3-yl)imidazo[1,2-a]pyridine-3-carboxamide]
100 to 1000 nM	Cc1nn(C)cc1-c1ccn2c(C(=O)N(C)[C@@H]3CCN(C#N)C3)cnc2c1 [Example 163, (R)-N-(1-cyanopyrrolidin-3-yl)-7-(1,3-dimethyl-1H-pyrazol-4-yl)-N-methylimidazo[1,2-a]pyridine-3-carboxamide]
100 to 1000 nM	Cc1cc(-c2ccn3c(C(=O)N(C)[C@@H]4CCN(C#N)C4)cnc3c2)cc(C)n1 [Example 164, (R)-N-(1-cyanopyrrolidin-3-yl)-7-(2,6-dimethylpyridin-4-yl)-N-methylimidazo[1,2-a]pyridine-3-carboxamide]
